Source: US9624167B2, “N-(4-hydroxy-4-methyl-cyclohexyl)-4-phenyl-benzenesulfonamides and N-(4-hydroxy-4-methyl-cyclohexyl)-4-(2-pyridyl)benzenesulfonamides and their therapeutic use” (PIMCO 2664 LIMITED, priority 2013, dated 2017)

How the values were obtained:
[1] = test system: collagen-induced arthritis; assay: Mouse Collagen-Induced Arthritis; format: in vivo, DBA/1j mice
Protocol: Seven- to eight-week-old male DBA/1j mice were used for all procedures. Animals were housed in groups of 10, and were maintained at 21° C.±2° C. on a 12-hour light/dark cycle with food and water ad libitum. […]. All mice were immunised subcutaneously with 200 μg of bovine type II collagen in CFA. 21 days later, all mice were immunised subcutaneously with 100 μg of bovine type II collagen in IFA.
The mice started to develop signs and symptoms of arthritis following the ‘booster’ immunisation.
(§1) For macroscopic assessment of arthritis, the following signs were monitored in each paw of each mouse three times per week and summed to generate the Arthritic Index (AI) (the maximum AI for one animal is 16): • 0=no visible effects of arthritis. • 1=oedema and/or erythema of 1 digit. • 2=oedema and/or erythema of 2 digits. • 3=oedema and/or erythema of more than 2 digits. • 4=severe arthritis of entire paw and digits.
Animals were sorted into treatment groups with a mean arthritic index of 2.5 and then dosed once daily for 14 days with compound by oral gavage for test compounds, or by subcutaneous injection at a dose of 10 mg/kg for the positive control, etanercept. After completion of the experiment, the mice were sacrificed.
(§2) The data were analysed by generating an average of the arthritic index across each treatment group. The mean arthritic index was then compared to the arthritic index of control (untreated) animals using the following formula to generate a percentage inhibition of disease.

CD8+ T-lymphocytes = assay: Human primary leucocyte viability: CD8+ T-lymphocytes; format: cell-based; details: 3 μM, 48 hours
Protocol: (§3) The effects of the reference compound (ABD735) on the viability of neutrophils, monocytes, CD4+ and CD8+ T-cells and B-lymphocytes was assessed under both resting and stimulated conditions. Resting conditions were used to assess likely effects on normal cells found in human blood, and stimulated conditions were used to assess the effects of the compound under disease conditions.
(§4) Effects on cell viability were assessed using flow cytometry. Flow cytometry is a laser-based, biophysical technology employed in cell counting, cell sorting, and biomarker detection, by suspending cells in a stream of fluid and passing them by an electronic detection apparatus. It allows simultaneous multi-parametric analysis of the physical and chemical characteristics of up to thousands of particles per second. The sorting of cells using flow cytometry requires the use of specific cell markers. To quantify cell numbers, counting beads are used as an internal standard. […] In addition, for B- and T-lymphocytes, cell proliferation was measured using a dye known as Cell Proliferation Dye (eFluor® 450). eFluor® 450 is an organic dye which can be conjugated to cell-specific markers. […]
(§5) The average results (n=3) for the reference compound (ABD735) were expressed as a fold change versus the average control value. […]

Neutrophils = assay: Human primary leucocyte viability: neutrophils; format: cell-based; details: 3 μM, 24 hours
Protocol: as §3, §4, §5

[2] = test system: pristane-induced arthritis; assay: Rat Pristane-Induced Arthritis Study; format: in vivo; details: for % inhibition of disease: once daily for 28 days; for Tolerability during extended dosing: rat pristane-induced arthritis study, oral, up to 28 days
Protocol: Female Lewis rats were used for all procedures. Animals were housed in groups of 5, and were maintained at 21° C.±2° C. on a 12-hour light/dark cycle with food and water ad libitum. Arthritis was induced by the administration of 0.3 mL pristane intra-dermally at the base of the tail. The rats started to develop signs and symptoms of arthritis approximately seven days after the pristane injection.
as §1, with “and digits including limb deformation and ankylosis of the joint.” for “and digits.”
Animals were sorted into treatment groups prior to pristane administration and dosed once daily for 28 days with test compound at doses of 3 and 10 mg/kg/day by oral gavage, or by intraperitoneal injection at a dose of 0.05 mg/kg for the positive control, methotrexate. After completion of the experiment, the rats were sacrificed.
as §2

[3] = 10 mg/kg/day oral gavage, once daily for 14 days, arthritic index vs control

Structure (SMILES)	% inhibition of disease [1, 3] [%]	% inhibition of disease ([2]; 3 mg/kg/day oral gavage) [%]	Tolerability during extended dosing [2]	further results
C[C@]1(O)CC[C@H](NS(=O)(=O)c2ccc(-c3ccc(F)cc3C(F)(F)F)cc2)CC1 [HMC-C-02-A, 4′-Fluoro-N-((1r,4r)-4-hydroxy-4-methylcyclohexyl)-2′-(trifluoromethyl)biphenyl-4-sulfonamide]	61			
Cc1cc(S(=O)(=O)N[C@H]2CC[C@H](O)CC2)ccc1-c1ccc(F)cc1F [ABD735]	44			Fold change in viability (CD8+ T-lymphocytes; no stimulation): 0.8; Fold change in viability (CD8+ T-lymphocytes; phytohaemagglutinin): 0.7; Fold change in viability (Neutrophils; Dexamethasone): 0.8; Fold change in viability (Neutrophils; no stimulation): 1.0
C[C@]1(O)CC[C@H](NS(=O)(=O)c2ccc(-c3ccc(Cl)cc3C#N)cc2)CC1 [HMC-C-01-A, 4′-Chloro-2′-cyano-N-((1r,4r)-4-hydroxy-4-methylcyclohexyl)biphenyl-4-sulfonamide]	40	40	tolerated well	% inhibition of disease ([2]; 10 mg/kg/day oral gavage): 67%; Efficacy compared with positive control methotrexate ([2]; methotrexate 0.05 mg/kg intraperitoneal): equivalent to that of the marketed first-line therapy for rheumatoid arthritis, methotrexate; % inhibition of disease ([1]; 0.3 mg/kg/day oral gavage, once daily for 14 days): 60%; % inhibition of disease ([1]; 1 mg/kg/day oral gavage, once daily for 14 days): 50%; % inhibition of disease ([1]; 3 mg/kg/day oral gavage, once daily for 14 days): 60%; Efficacy compared with positive control etanercept ([1]; low doses (0.3 and 3 mg/kg/day) vs etanercept 10 mg/kg subcutaneous): greater efficacy than the marketed treatment, etanercept, at low doses
C[C@]1(O)CC[C@H](NS(=O)(=O)c2ccc(-c3ncc(F)cc3F)c(F)c2)CC1 [HMC-N-01-A, 4-(3,5-Difluoropyridin-2-yl)-3-fluoro-N-((1r,4r)-4-hydroxy-4-methylcyclohexyl)benzenesulfonamide]	45	39	tolerated well	% inhibition of disease ([2]; 10 mg/kg/day oral gavage): 60%
C[C@]1(O)CC[C@@H](NS(=O)(=O)c2ccc(-c3ccc(Cl)cc3C#N)cc2)CC1 [HMC-C-01-B, 4′-Chloro-2′-cyano-N-((1s,4s)-4-hydroxy-4-methylcyclohexyl)-[1,1′-biphenyl]-4-sulfonamide]	26			
C[C@]1(O)CC[C@@H](NS(=O)(=O)c2ccc(-c3ccc(F)cc3F)cc2)CC1 [ABD899, reference compound]	77	21	poorly tolerated	
C[C@]1(O)CC[C@@H](NS(=O)(=O)c2ccc(-c3ncc(F)cc3F)c(F)c2)CC1 [HMC-N-01-B, 4-(3,5-Difluoropyridin-2-yl)-3-fluoro-N-((1s,4s)-4-hydroxy-4-methylcyclohexyl)benzenesulfonamide]				% inhibition of disease ([1]; dose reduced from 10 to 1 mg/kg/day due to mortality, oral gavage): 38%
C[C@]1(O)CC[C@H](NS(=O)(=O)c2ccc(-c3ncc(F)cc3F)cc2)CC1 [HMC-N-02-A, 4-(3,5-Difluoropyridin-2-yl)-N-((1r,4r)-4-hydroxy-4-methylcyclohexyl)benzenesulfonamide]	36			
